Measurements: patent US8383637B2, “2-amino-quinazoline derivatives useful as inhibitors of β-secretase (BACE)” (Jansssen Pharmaceutica N.V., priority 2004, dated 2013)

Target: T1, β-secretase(BACE) (Homo sapiens, UniProt P56817)
T1 construct: purchased Panvera
Assay: BACE FS1% Inhibition Assay
Assay type: biochemical
Details: FS1 substrate
In short: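 Percent inhibition at each tested concentration, referenced to enzyme-free blank and vehicle-only positive control. Reaction: compound and BACE (4 μg/mL working stock) mixed 20 min at room temperature before FS1 substrate (300 μg/mL working stock), then 1 h at room temperature.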

T1 sequence (P56817 46-501): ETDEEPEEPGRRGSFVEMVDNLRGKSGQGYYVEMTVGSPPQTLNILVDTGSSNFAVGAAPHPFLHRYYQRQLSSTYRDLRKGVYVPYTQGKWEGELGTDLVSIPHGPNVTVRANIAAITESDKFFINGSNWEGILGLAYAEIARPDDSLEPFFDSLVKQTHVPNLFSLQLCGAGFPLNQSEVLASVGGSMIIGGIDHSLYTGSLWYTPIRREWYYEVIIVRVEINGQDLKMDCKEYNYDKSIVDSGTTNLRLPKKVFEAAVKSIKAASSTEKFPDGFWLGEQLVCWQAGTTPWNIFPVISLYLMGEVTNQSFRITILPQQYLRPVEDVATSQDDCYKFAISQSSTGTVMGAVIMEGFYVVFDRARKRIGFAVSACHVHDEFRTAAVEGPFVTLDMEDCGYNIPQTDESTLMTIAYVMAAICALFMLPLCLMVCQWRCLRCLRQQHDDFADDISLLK

SMILES	% Inhibition (FS) 0.3 μM (0.3 μM test compound)	% Inhibition (FS) 1 μM (1 μM test compound)	% Inhibition (FS) 3 μM (3 μM test compound)	inhibition at 0.3 µM (0.3 μM test compound, read-out: % Inhibition (FS) 0.3 μM)	inhibition at 1 µM (1 μM test compound, read-out: % Inhibition (FS) 1 μM)	inhibition at 3 µM (3 μM test compound, read-out: % Inhibition (FS) 3 μM)
NC1=Nc2ccc(-c3ccc(Cl)cc3)cc2CN1CCNC(=O)C1CCCCC1 [Compound 626]	<30%	<30%	56%			
COc1ccc(C)cc1-c1ccc2c(c1)CN(CCNC(=O)C1CCCCC1)C(N)=N2 [Compound 630]	<30%	<30%	48%			
CN(C(=O)CCC(C1CCCCC1)N1Cc2cc(Oc3ccccc3)ccc2N=C1N)C1CCOCC1 (stereo not drawn) [Compound 633]	<30%	30%	70%			
NC1=Nc2ccc(Oc3ccccc3)cc2CN1CC(NC(=O)C1CCCCC1)C1CCCCC1 (stereo not drawn) [Compound 637]	<30%	<30%	73%			
CN(C(=O)c1ncoc1CN1Cc2cc(Oc3ccccc3)ccc2N=C1N)C1CCCCC1 [Compound 641]	<30%	<30%	48%			
NC1=Nc2ccc(-c3ccccc3F)cc2CN1CCNC(=O)C1CCC1 [Compound 642]	37%	63%	96%			
NC1=Nc2ccc(-c3ccccc3F)cc2CN1CCNC(=O)C1CCCC1 [Compound 643]	74%	92%	110%			
CCCC(=O)NCCN1Cc2cc(-c3ccccc3F)ccc2N=C1N [Compound 645]	67%	57%	91%			
CCCCC(CC)C(=O)NCCN1Cc2cc(-c3ccccc3F)ccc2N=C1N (stereo not drawn) [Compound 648]	39%	74%	104%			
NC1=Nc2ccc(-c3ccccc3Cl)cc2CN1CCNC(=O)C1CCC1 [Compound 649]	34%	65%	95%			
NC1=Nc2ccc(-c3ccccc3Cl)cc2CN1CCNC(=O)C12CC3CC(CC(C3)C1)C2 [Compound 651]	<30%	51%	96%			

The remaining lines, values ahead:

% Inhibition (FS) 0.3 μM (0.3 μM test compound)	% Inhibition (FS) 1 μM (1 μM test compound)	% Inhibition (FS) 3 μM (3 μM test compound)	inhibition at 0.3 µM (0.3 μM test compound, read-out: % Inhibition (FS) 0.3 μM)	inhibition at 1 µM (1 μM test compound, read-out: % Inhibition (FS) 1 μM)	inhibition at 3 µM (3 μM test compound, read-out: % Inhibition (FS) 3 μM)	SMILES
<30%	<30%	32%				Cc1ccc(-c2ccc3c(c2)CN(CCNC(=O)C2CCCCC2)C(N)=N3)cc1 [Compound 628]
<30%	<30%	48%				COc1ccc(F)cc1-c1ccc2c(c1)CN(CCNC(=O)C1CCCCC1)C(N)=N2 [Compound 631]
			< 30%	< 30%	30%	NC1=Nc2ccc(Oc3ccccc3)cc2CN1C[C@H](NC(=O)C1CCCCC1)C1CCCCC1 [Compound 636, (R)-enantiomer of cyclohexanecarboxylic acid [2-(2-amino-6-phenoxy-4H-quinazolin-3-yl)-1-cyclohexyl-ethyl]-amide]
<30%	<30%	48%				CN(C(=O)CCC(C1CCCCC1)N1Cc2cc(Oc3ccccc3)ccc2N=C1N)C1CCC(O)CC1 (stereo not drawn) [Compound 639]
<30%	<30%	<30%				NC1=Nc2ccc(Oc3ccccc3)cc2CN1Cc1ocnc1C(=O)NC1CCCCC1 [Compound 640]
46%	72%	104%				NC1=Nc2ccc(-c3ccccc3F)cc2CN1CCNC(=O)C12CC3CC(CC(C3)C1)C2 [Compound 644]
52%	72%	97%				CC(C)(C)C(=O)NCCN1Cc2cc(-c3ccccc3F)ccc2N=C1N [Compound 646]
72%	94%	112%				NC1=Nc2ccc(-c3ccccc3Cl)cc2CN1CCNC(=O)C1CCCC1 [Compound 650]
